Source: US20220389058A1, “PEPTIDES AND COMPOSITIONS FOR USE IN COSMETICS AND MEDICINE” (LIPOTRUE, S.L., priority 2019, published 2022)

How the values were obtained:
Type in all cases: cell-based, Human
HDFa cells [1] = assay: Expression of genes related with collagen production and extracellular matrix, RT-qPCR in HDFa (Example 10); conditions: 0.01 mg/mL
Procedure: (§1) A stock solution of the peptide was prepared in water at 1 mg/mL. Working solution was freshly prepared at the specified concentration from stock solution in the corresponding supplemented medium.
RNA (ribonucleic acid) extraction and RT-qPCR (reverse transcription quantitative polymerase chain reaction) were performed. Briefly, HDFa cells were seeded in duplicate (n=2) in 6-well plates at a density of 4×10^5 cells/well and maintained at standard culture conditions (106 Medium supplemented with 1% (v/v) LSGS; 37° C., 95% room humidity, 5% CO2) for 24 hours. Then, cells were treated with peptide Ac-SEQ ID NO: 1-NH2 at the concentration of 0.01 mg/mL for 24 and 48 hours. Untreated cells were used as basal or negative control.
(§2) Cells were finally lysed, and replicates were pooled together for RNA extraction using Qiagen RNeasy Mini kit following manufacturer's instructions. Purified RNAs were used to generate the corresponding cDNAs (complementary deoxyribonucleic acids) by reverse transcription using a commercial kit High capacity cDNA reverse transcription kit (Applied Biosystems) which served as templates for amplification. RT-qPCR was performed with the panel of appropriate TaqMan assay probes for genes shown in table 5 (plus GAPDH—Glyceraldehyde 3-phosphate dehydrogenase—that was used as housekeeping gene) and 2×gene expression Master Mix using StepOne plus Real-Time PCR instrument. Amplification included 40 cycles of: 15 seconds at 95° C. (denaturation) and 1 minute at 60° C. (Annealing and extension) (Arya, M., Shergill, I. S., Williamson, M., Gommersall, L., Arya, N., Patel, H. R. (2005) Basic principles of real-time quantitative PCR. Expert Rev. Mol. Diagn.; 5(2):209-19; and Jozefczuk, J. and Adjaye, J. (2011) Quantitative real-time PCR-based analysis of gene expression. Methods Enzymol. 500; 99-109).
(§3) The obtained data was analysed using the ΔΔCt method, which provides the target gene expression values as fold changes in the treated sample compared with an untreated basal sample. Both samples were normalized with the relative expression of a housekeeping gene GAPDH (Glyceraldehyde 3-phosphate dehydrogenase).

HDFa cells [2] = assay: Genes related with response to sleep deprivation, RT-qPCR in HDFa (Example 16); conditions: 0.01 mg/ml, 24 hours
Procedure: as §1
(§4) RNA (ribonucleic acid) extraction and RT-qPCR (reverse transcription quantitative polymerase chain reaction) were performed. […]
(§5) Cells were finally lysed, and replicates were pooled together for RNA extraction using Qiagen RNeasy Mini kit following manufacturer's instructions. […] (Annealing and extension) (Arya, M., Shergill, I. S., Williamson, M., Gommersall, L., Arya, N., Patel, H. R. (2005) Basic principles of real-time quantitative PCR. Expert Rev. Mol. Diagn.; 5(2):209-19; and Jozefczuk, J. and Adjaye, J. (2011) Quantitative real-time PCR-based analysis of gene expression. Methods Enzymol. 500; 99-109).
(§6) The obtained data was analysed using the ΔΔCt method, which provides the target gene expression values as fold changes in the treated sample compared with an untreated basal sample. […]

HUVECs = assay: Genes related with response to sleep deprivation, RT-qPCR in HUVEC (Example 16); conditions: 0.01 mg/ml, 24 hours
Procedure: as §1, §4, §5, §6

HEKa cells [3] = assay: Genes related with response to sleep deprivation, RT-qPCR in HEKa (Example 16); conditions: 0.01 mg/ml, 24 hours
Procedure: as §1
RNA (ribonucleic acid) extraction and RT-qPCR (reverse transcription quantitative polymerase chain reaction) were performed. Briefly, HEKa, HDFa or HUVEC cells were seeded in duplicate (n=2) in 6-well plates at a density of 4×10^5 cells/well (2×10^5 cells/well for HUVEC cells) and maintained at standard culture conditions (106 Medium supplemented with 1% (v/v) LSGS for HDFa cells; Medium Epilife supplemented with 1% (v/v) EDGS and 1% (v/v) penicillin/streptomycin for HEKa cells; Endothelial Cell Growth Medium for HUVEC cells; 37° C., 95% room humidity, 5% CO2) for 24 hours.
Then, cells were treated with peptide Ac-SEQ ID NO: 1-NH2 at the concentration of 0.01 mg/mL for 24 hours. Untreated cells were used as basal or negative control.
as §2, with “table 10” for “table 5”
as §3

HEKa cells [4] = assay: Expression of genes related to epidermal cell cohesion, RT-qPCR in HEKa (Example 9); conditions: 0.01 mg/mL, 24 hours
Procedure: as §1
RNA (ribonucleic acid) extraction and RT-qPCR (reverse transcription quantitative polymerase chain reaction) were performed. Briefly, HEKa cells were seeded in duplicate (n=2) in 6-well plates at a density of 4×10^5 cells/well and maintained at standard culture conditions (Medium Epilife supplemented with 1% (v/v) EDGS and 1% (v/v) penicillin/streptomycin; 37° C., 95% room humidity, 5% CO2) for 24 hours.
Then, cells were treated with peptide Ac-SEQ ID NO: 1-NH2, Ac-SEQ ID NO: 2-NH2 or Ac-SEQ ID NO: 3-NH2 at the concentration of 0.01 mg/mL for 24 hours. Untreated cells were used as basal or negative control.
as §2, with “table 1” for “table 5”
as §3

Ac-Arg-Arg-Gln-Met-Arg-Glu-NH2 (Ac-RRQMRE-NH2) [Ac-SEQ ID NO: 1-NH2]
COL3A1 Fold change between treated cells and basal control (HDFa cells [1]; 24 hours): 1.32 Fold change | LAMA1 Fold change between treated cells and basal control (HDFa cells [1]; 24 hours): 1.16 Fold change | TIMP2 Fold change between treated cells and basal control (HDFa cells [1]; 24 hours): 1.35 Fold change | MMP1 Fold change between treated cells and basal control (HDFa cells [1]; 48 hours): −1.30 Fold change | MMP3 Fold change between treated cells and basal control (HDFa cells [1]; 48 hours): −1.69 Fold change | IL1RL1 Fold change between treated cells and basal control (HDFa cells [2]): −1.26 Fold change | NFKB1 Fold change between treated cells and basal control (HUVECs): −1.24 Fold change | CXCL8 Fold change between treated cells and basal control (HEKa cells [3]): −1.33 Fold change | MTNR1A Fold change between treated cells and basal control (HEKa cells [3]): 2.11 Fold change | SIGIRR Fold change between treated cells and basal control (HEKa cells [3]): 1.27 Fold change | SLC2A1 Fold change between treated cells and basal control (HEKa cells [3]): −1.21 Fold change | CDSN Fold change between treated cells and basal control (HEKa cells [4]): 1.46 Fold change | CLDN1 Fold change between treated cells and basal control (HEKa cells [4]): 1.57 Fold change | CLDN4 Fold change between treated cells and basal control (HEKa cells [4]): 2.64 Fold change | DSC2 Fold change between treated cells and basal control (HEKa cells [4]): 1.23 Fold change | DSP Fold change between treated cells and basal control (HEKa cells [4]): 1.28 Fold change | JUP Fold change between treated cells and basal control (HEKa cells [4]): 1.42 Fold change | OCLN Fold change between treated cells and basal control (HEKa cells [4]): 1.98 Fold change | PCDH1 Fold change between treated cells and basal control (HEKa cells [4]): 2.41 Fold change | PKP2 Fold change between treated cells and basal control (HEKa cells [4]): 1.72 Fold change | PPL Fold change between treated cells and basal control (HEKa cells [4]): 1.54 Fold change | TJP1 Fold change between treated cells and basal control (HEKa cells [4]): 1.25 Fold change
